Laboratory results as given in patent US20260124214A1, “HETEROCYCLIC COMPOUNDS FOR USE IN THE TREATMENT OF CANCER” (ARTIOS PHARMA LIMITED, priority 2021, published 2026).
Where a name gives a salt, the structure may show the parent alone.

Molecular target: T1, Human Polθ polymerase domain (aa1820-2590) (Homo sapiens, UniProt O75417)
T1 construct: Human Polθ polymerase domain (aa1820-2590) was expressed in E. Coli; made in house; host or cells: E. coli
T1 sequence (O75417 1820-2590): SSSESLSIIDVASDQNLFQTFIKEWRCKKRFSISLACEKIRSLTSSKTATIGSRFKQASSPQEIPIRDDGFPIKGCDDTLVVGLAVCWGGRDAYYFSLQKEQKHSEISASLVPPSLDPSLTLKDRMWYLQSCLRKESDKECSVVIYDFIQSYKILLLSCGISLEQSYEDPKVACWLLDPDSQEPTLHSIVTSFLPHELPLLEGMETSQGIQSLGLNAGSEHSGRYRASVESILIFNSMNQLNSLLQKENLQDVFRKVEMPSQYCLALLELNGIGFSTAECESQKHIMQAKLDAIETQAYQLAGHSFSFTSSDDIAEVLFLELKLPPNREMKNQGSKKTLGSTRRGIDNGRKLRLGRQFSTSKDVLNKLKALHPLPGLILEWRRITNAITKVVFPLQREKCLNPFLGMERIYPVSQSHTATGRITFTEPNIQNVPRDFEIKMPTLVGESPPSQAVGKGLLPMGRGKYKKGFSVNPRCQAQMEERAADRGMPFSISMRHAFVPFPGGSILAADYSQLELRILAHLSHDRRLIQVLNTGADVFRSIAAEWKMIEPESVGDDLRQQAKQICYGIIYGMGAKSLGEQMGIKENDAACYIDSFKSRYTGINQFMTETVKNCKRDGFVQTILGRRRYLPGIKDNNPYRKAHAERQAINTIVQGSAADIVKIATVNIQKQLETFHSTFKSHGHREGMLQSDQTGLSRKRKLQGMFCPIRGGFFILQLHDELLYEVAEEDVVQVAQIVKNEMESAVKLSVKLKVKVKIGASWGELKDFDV
Test: Polθ Polymerase Domain WT KI Assay (PicoGreen)
Format: biochemical
Conditions: 100 nM DNA substrate, 0.156 nM Polθ, initial rates vs inhibitor concentration
Outline: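 E. coli-expressed human Polθ polymerase domain (aa1820-2590) on annealed DNA II Short/Long primer-template (1.2:1), in 25 mM Tris pH 7.5, NaCl, 5% glycerol, 0.01% Triton X-100, 0.1 mg/ml BSA, 1 mM DTT, 1% DMSO. EDTA-quenched timepoints to 180 min, PicoGreen fluorescence. Initial rates vs inhibitor concentration fitted four-parameter for KI.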

Structure (SMILES) | Ki
Cc1cc(C(F)(F)F)cc(N2C(=O)C[C@@H]3CN(Cc4cn5c(n4)CNCC5)c4c(C)cccc4N(C)C(=O)[C@H]32)n1 [Example 80, (3aR,11aS)-6,10-Dimethyl-1-(6-methyl-4-(trifluoromethyl)pyridin-2-yl)-5-((5,6,7,8-tetrahydroimidazo[1,2-a]pyrazin-2-yl)methyl)-1,3a,4,5,10,11a-hexahydro-2H-benzo[b]pyrrolo[2,3-f][1,4]diazocine-2,11(3H)-dione] | 0.186 nM
Cc1cc(C(F)(F)F)cc(N2C(=O)C[C@@H]3CN(Cc4nc5n(c4F)CCN(C)C5)c4c(Cl)cccc4N(C)C(=O)[C@H]32)n1 [Example 81, (3aR,11aS)-6-Chloro-5-((3-fluoro-7-methyl-5,6,7,8-tetrahydroimidazo[1,2-a]pyrazin-2-yl)methyl)-10-methyl-1-(6-methyl-4-(trifluoromethyl)pyridin-2-yl)-1,3a,4,5,10,11a-hexahydro-2H-benzo[b]pyrrolo[2,3-f][1,4]diazocine-2,11(3H)-dione hydrochloride] | 1 nM
Cc1cc(C(F)(F)F)cc(N2C(=O)C[C@@H]3CN(Cc4nc5n(c4C)CCN(C)C5)c4c(C)cccc4N(C)C(=O)[C@H]32)n1 [Example 82, (3aR,11aS)-5-((3,7-Dimethyl-5,6,7,8-tetrahydroimidazo[1,2-a]pyrazin-2-yl)methyl)-6,10-dimethyl-1-(6-methyl-4-(trifluoromethyl)pyridin-2-yl)-1,3a,4,5,10,11a-hexahydro-2H-benzo[b]pyrrolo[2,3-f][1,4]diazocine-2,11(3H)-dione] | 0.431 nM
Cc1cc(C(F)(F)F)cc(N2C(=O)C[C@@H]3CN(Cc4nc5n(c4F)CCN(C)C5)c4c(C)cccc4N(C)C(=O)[C@H]32)n1 [Example 83, (3aR,11aS)-5-((3-Fluoro-7-methyl-5,6,7,8-tetrahydroimidazo[1,2-a]pyrazin-2-yl)methyl)-6,10-dimethyl-1-(6-methyl-4-(trifluoromethyl)pyridin-2-yl)-1,3a,4,5,10,11a-hexahydro-2H-benzo[b]pyrrolo[2,3-f][1,4]diazocine-2,11(3H)-dione] | 0.254 nM
Cc1cc(C(F)(F)F)cc(N2C(=O)C[C@@H]3CN(CC4CCN(C)CC4)c4c(Cl)cccc4N(C)C(=O)[C@H]32)n1 [Example 84, (3aR,11aS)-6-Chloro-10-methyl-1-(6-methyl-4-(trifluoromethyl)pyridin-2-yl)-5-((1-methylpiperidin-4-yl)methyl)-1,3a,4,5,10,11a-hexahydro-2H-benzo[b]pyrrolo[2,3-f][1,4]diazocine-2,11(3H)-dione] | 2.54 nM
Cc1cc(C(F)(F)F)cc(N2C(=O)C[C@@H]3CN(CC4CCN(C5COC5)CC4)c4c(Cl)cccc4N(C)C(=O)[C@H]32)n1 [Example 85, (3aR,11aS)-6-Chloro-10-methyl-1-(6-methyl-4-(trifluoromethyl)pyridin-2-yl)-5-((1-(oxetan-3-yl)piperidin-4-yl)methyl)-1,3a,4,5,10,11a-hexahydro-2H-benzo[b]pyrrolo[2,3-f][1,4]diazocine-2,11(3H)-dione] | 0.622 nM
Cc1cc(C(F)(F)F)cc(N2C(=O)C[C@@H]3CN(CC4CCN(CCF)CC4)c4c(Cl)cccc4N(C)C(=O)[C@H]32)n1 [Example 86, (3aR,11aS)-6-Chloro-5-((1-(2-fluoroethyl)piperidin-4-yl)methyl)-10-methyl-1-(6-methyl-4-(trifluoromethyl)pyridin-2-yl)-1,3a,4,5,10,11a-hexahydro-2H-benzo[b]pyrrolo[2,3-f][1,4]diazocine-2,11(3H)-dione] | 1.3 nM
COCCN1CCC(CN2C[C@H]3CC(=O)N(c4cc(C(F)(F)F)cc(C)n4)[C@@H]3C(=O)N(C)c3cccc(Cl)c32)CC1 [Example 87, (3aR,11aS)-6-Chloro-5-((1-(2-methoxyethyl)piperidin-4-yl)methyl)-10-methyl-1-(6-methyl-4-(trifluoromethyl)pyridin-2-yl)-1,3a,4,5,10,11a-hexahydro-2H-benzo[b]pyrrolo[2,3-f][1,4]diazocine-2,11(3H)-dione] | 1.48 nM
Cc1cc(C(F)(F)F)cc(N2C(=O)C[C@@H]3CN(CC4CCN(CCO)CC4)c4c(C)cccc4N(C)C(=O)[C@H]32)n1 [Example 88, (3aR,11aS)-5-((1-(2-Hydroxyethyl)piperidin-4-yl)methyl)-6,10-dimethyl-1-(6-methyl-4-(trifluoromethyl)pyridin-2-yl)-1,3a,4,5,10,11a-hexahydro-2H-benzo[b]pyrrolo[2,3-f][1,4]diazocine-2,11(3H)-dione] | 1.3 nM
Cc1cc(C(F)(F)F)cc(N2C(=O)C[C@@H]3CN(CCOCCN(C)C)c4c(Cl)cccc4N(C)C(=O)[C@H]32)n1 [Example 89, (3aR,11aS)-6-Chloro-5-(2-(2-(dimethylamino)ethoxy)ethyl)-10-methyl-1-(6-methyl-4-(trifluoromethyl)pyridin-2-yl)-1,3a,4,5,10,11a-hexahydro-2H-benzo[b]pyrrolo[2,3-f][1,4]diazocine-2,11(3H)-dione hydrochloride] | 1.85 nM
Cc1cc(C(F)(F)F)cc(N2C(=O)C[C@@H]3CN(CCOCCN(C)C)c4c(C)cccc4N(C)C(=O)[C@H]32)n1 [Example 90, (3aR,11aS)-5-(2-(2-(Dimethylamino)ethoxy)ethyl)-6,10-dimethyl-1-(6-methyl-4-(trifluoromethyl)pyridin-2-yl)-1,3a,4,5,10,11a-hexahydro-2H-benzo[b]pyrrolo[2,3-f][1,4]diazocine-2,11(3H)-dione] | 0.991 nM
Cc1cc(C(F)(F)F)cc(N2C(=O)C[C@@H]3CN(CC(=O)N4CCN(C)CC4)c4c(C)cccc4N(C)C(=O)[C@H]32)n1 [Example 93, (3aR,11aS)-6,10-Dimethyl-1-(6-methyl-4-(trifluoromethyl)pyridin-2-yl)-5-(2-(4-methylpiperazin-1-yl)-2-oxoethyl)-1,3a,4,5,10,11a-hexahydro-2H-benzo[b]pyrrolo[2,3-f][1,4]diazocine-2,11(3H)-dione] | 1.19 nM
Cc1cc(C(F)(F)F)cc(N2C(=O)C[C@@H]3CN(Cc4ccncc4)c4c(Cl)cccc4N(C)C(=O)[C@H]32)n1 [Example 94, (3aR,11aS)-6-Chloro-10-methyl-1-(6-methyl-4-(trifluoromethyl)pyridin-2-yl)-5-(pyridin-4-ylmethyl)-1,3a,4,5,10,11a-hexahydro-2H-benzo[b]pyrrolo[2,3-f][1,4]diazocine-2,11(3H)-dione] | 3.29 nM
Cc1cc(C(F)(F)F)cc(N2C(=O)C[C@@H]3CN(Cc4cccnc4)c4c(Cl)cccc4N(C)C(=O)[C@H]32)n1 [Example 95, (3aR,11aS)-6-Chloro-10-methyl-1-(6-methyl-4-(trifluoromethyl)pyridin-2-yl)-5-(pyridin-3-ylmethyl)-1,3a,4,5,10,11a-hexahydro-2H-benzo[b]pyrrolo[2,3-f][1,4]diazocine-2,11(3H)-dione] | 3.7 nM
Cc1cc(C(F)(F)F)cc(N2C(=O)C[C@@H]3CN(CC4CCCNC4)c4c(F)cccc4N(C)C(=O)[C@H]32)n1 (stereo partly drawn) [Example 97, (3aR,11aS)-6-Fluoro-10-methyl-1-(6-methyl-4-(trifluoromethyl)pyridin-2-yl)-5-(piperidin-3-ylmethyl)-1,3a,4,5,10,11a-hexahydro-2H-benzo[b]pyrrolo[2,3-f][1,4]diazocine-2,11(3H)-dione hydrochloride] | 8.7 nM
Cc1cc(C(F)(F)F)cc(N2C(=O)C[C@@H]3CN(Cc4nc5n(n4)CCNC5)c4c(F)cccc4N(C)C(=O)[C@H]32)n1 [Example 98, (3aR,11aS)-6-Fluoro-10-methyl-1-(6-methyl-4-(trifluoromethyl)pyridin-2-yl)-5-((5,6,7,8-tetrahydro-[1,2,4]triazolo[1,5-a]pyrazin-2-yl)methyl)-1,3a,4,5,10,11a-hexahydro-2H-benzo[b]pyrrolo[2,3-f][1,4]diazocine-2,11(3H)-dione] | 4.91 nM
Cc1cc(C(F)(F)F)cc(N2C(=O)C[C@@H]3CN(C[C@@H]4CCNC4)c4c(Cl)cccc4N(C)C(=O)[C@H]32)n1 [Example 99, (3aR,11aS)-6-Chloro-10-methyl-1-(6-methyl-4-(trifluoromethyl)pyridin-2-yl)-5-(((R)-pyrrolidin-3-yl)methyl)-1,3a,4,5,10,11a-hexahydro-2H-benzo[b]pyrrolo[2,3-f][1,4]diazocine-2,11(3H)-dione hydrochloride] | 3.05 nM
Cc1cc(C(F)(F)F)cc(N2C(=O)C[C@@H]3CN(C[C@H]4CCNC4)c4c(Cl)cccc4N(C)C(=O)[C@H]32)n1 [Example 100, (3aR,11aS)-6-Chloro-10-methyl-1-(6-methyl-4-(trifluoromethyl)pyridin-2-yl)-5-(((S)-pyrrolidin-3-yl)methyl)-1,3a,4,5,10,11a-hexahydro-2H-benzo[b]pyrrolo[2,3-f][1,4]diazocine-2,11(3H)-dione hydrochloride] | 1.75 nM
